Data set [1] in a line: Aggregation property of the compound in ammonium acetate buffer at pH 7.6 assessed as particle size at 100 uM in absence of Triton X-100 by dynamic light scattering method. The format is physicochemical. As to conditions: pH 7.6, 100 µM.
Data set [2] can be described thus: Aggregation property of the compound in ammonium acetate buffer at pH 7.6 assessed as light scattering intensity counts at 100 uM in presence of Triton X-100 by dynamic light scattering method. The format is physicochemical. As to conditions: pH 7.6, 100 µM.
Data set [3] is described as follows: Aggregation property of the compound in water at pH 7 assessed as light scattering intensity counts at 100 uM in absence of Triton X-100 by dynamic light scattering method. It counts as physicochemical. As to conditions: buffer, pH 7, 100 µM.
Data set [4] is described as follows: Aggregation property of the compound in water at pH 7 assessed as particle size at 100 uM in absence of Triton X-100 by dynamic light scattering method. As to conditions: buffer, pH 7, 100 µM. The format is physicochemical.
The test system of data set [5] is Mycobacterium tuberculosis. Description: Antimycobacterial activity against Mycobacterium tuberculosis H37Rv. The format is functional.
Data set [6] is described as follows: Aggregation property of the compound in water at pH 7 assessed as particle size at 100 uM in presence of Triton X-100 by dynamic light scattering method. It counts as physicochemical. As to conditions: buffer, pH 7, 100 µM.
The nature of data set [7]: Aggregation property of the compound in ammonium acetate buffer at pH 7.6 assessed as particle size at 100 uM in presence of Triton X-100 by dynamic light scattering method. The format is physicochemical. As to conditions: pH 7.6, 100 µM.
Data set [8] is described as follows: Aggregation property of the compound in ammonium acetate buffer at pH 7.6 assessed as light scattering intensity counts at 100 uM in absence of Triton X-100 by dynamic light scattering method. It counts as physicochemical. As to conditions: pH 7.6, 100 µM.
Data set [9] can be described thus: Aggregation property of the compound in water at pH 7 assessed as light scattering intensity counts at 100 uM in presence of Triton X-100 by dynamic light scattering method. As to conditions: buffer, pH 7, 100 µM. It counts as physicochemical.
For data set [10], the system named is Mycobacterium tuberculosis. The data set can be described thus: Inhibition of Mycobacterium tuberculosis shikimate kinase assessed as reduction in S3P production at <50 uM pre-incubated for 30 mins before ATP and shikimate substrate addition by LC-MS assay.
A short description of data set [11]: Inhibition of Mycobacterium tuberculosis shikimate kinase assessed as reduction in S3P production […] pre-incubated with 0.015 uM enzyme for 30 mins before ATP and shikimate substrate addition by LC-MS assay.
In data set [12] the test system is Mycobacterium tuberculosis. The data set can be described thus: Inhibition of Mycobacterium tuberculosis shikimate kinase assessed as reduction in S3P production at 100 uM pre-incubated with 0.02 uM enzyme for 30 mins before ATP and shikimate substrate addition in absence of Triton X-100 by LC-MS assay.
Data set [13] has as its system Mycobacterium tuberculosis. The data set can be described thus: Inhibition of Mycobacterium tuberculosis shikimate kinase assessed as reduction in S3P production at 100 uM pre-incubated with 0.2 uM enzyme for 30 mins before ATP and shikimate substrate addition in presence of Triton X-100 by LC-MS assay.
Data set [14] has as its system Mycobacterium tuberculosis. The data set can be described thus: Inhibition of Mycobacterium tuberculosis shikimate kinase assessed as reduction in S3P production at 100 uM pre-incubated with 0.02 uM enzyme for 30 mins before ATP and shikimate substrate addition in presence of Triton X-100 by LC-MS assay.
The test system of data set [15] is Mycobacterium tuberculosis. The data set can be described thus: Inhibition of Mycobacterium tuberculosis shikimate kinase assessed as reduction in S3P production at 100 uM pre-incubated with 0.2 uM enzyme for 30 mins before ATP and shikimate substrate addition in absence of Triton X-100 by LC-MS assay.
The nature of data set [16]: Aggregation property of the compound in ammonium acetate buffer at pH 7.6 assessed as particle size at 100 uM in absence of Triton X-100 by transmission electron microscopy. The format is physicochemical. As to conditions: pH 7.6, 100 µM.
The nature of data set [17]: Aggregation property of the compound in ammonium acetate buffer at pH 7.6 assessed as particle size at 100 uM in presence of Triton X-100 by transmission electron microscopy. It counts as physicochemical. As to conditions: pH 7.6, 100 µM.

≈ marks a conversion by molar mass, not a printed value.

Broadly, the IC90 is the point of the concentration-response curve where the effect stands at 90%. In general, inhibition refers to the relative decrease from the control value, in per cent. For `CCOc1ccc(C(=O)Nc2nnc(-c3ccc(C)cc3C)o2)cc1`, the Activity in [1] amounted to 1620 nm; in data set [2], 123 kCounts; in data set [3], 280 kCounts; in data set [4] it was 1583 nm; in [6] it was 275 nm; in data set [7], 354 nm. Also, the Activity in [8] came to 300 kCounts; in data set [9], 122 kCounts. The same molecule returned an IC90 in data set [5] of 1.8 µg/mL (≈ 5.34 µM). The inhibition in [10] was > 90%.

Usually IC50 stands for the concentration that inhibits the measured activity by half. As for `O=C(/C=C/c1ccccc1)Nc1nnc(-c2ccc3c(c2)CCCC3)o1`, the Activity in [1] came to 1820 nm; in [2] it was 141 kCounts; in [3], 306 kCounts; in data set [4] it was 1820 nm; in data set [6], 353 nm; in data set [7], 390 nm. The values for the Activity in data set [8] and in [9] were 310 kCounts and 138 kCounts, respectively. Moreover, the IC50 in data set [11] was 58.4 µM. In addition, the IC90 in data set [5] worked out at 1.68 µg/mL (≈ 4.86 µM). In addition, the inhibition in data set [12] was 95%; in [13], 0%; in [14], 0%; in data set [15], 0%; in data set [10], > 90%.

Turning to `O=C(c1cccs1)N(CCCn1ccnc1)c1nc2c(F)cc(F)cc2s1`, the Activity in data set [1] stood at 1934 nm; in data set [2], 150 kCounts; in data set [3] it was 300 kCounts; in [4], 1852 nm; in data set [6], 398 nm; in [7], 470 nm. For the same molecule, the Activity was found to be 321 kCounts in data set [8] and 142 kCounts in [9]. The IC90 in [5] was found to be 2.38 µg/mL (≈ 5.88 µM). Further, in data set [10], the inhibition was > 90%.

On to `CC(C)(C)C(=O)Nc1nnc(-c2ccc(Br)cc2)o1`, for which the Activity in [1] stood at 1211 nm; in [2], 100 kCounts; in data set [3], 250 kCounts; in data set [4], 1192 nm; in [6], 198 nm; in [7] it was 201 nm. For the same molecule, the Activity in data set [8] was determined as 260 kCounts; in data set [9] it was 92 kCounts. In addition, the IC90 in data set [5] is < 0.2 µg/mL. Also, the inhibition in data set [10] was > 90%.

For the molecule `Cc1ccc(C)c(-c2nnc(NC(=O)c3ccc([N+](=O)[O-])s3)o2)c1`, the Activity worked out at 986 nm in [1]; 85 kCounts in [2]; 237 kCounts in data set [3]; 973 nm in data set [4]; 176 nm in data set [6]; 151 nm in [7]. Moreover, the Activity was 240 kCounts in data set [8] and 80 kCounts in data set [9]. This molecule came in with an IC90 in data set [5] of 3.09 µg/mL (≈ 8.97 µM). In data set [10], the inhibition was > 90%.

As to `CSc1ccc2nc(Nc3nc4ccc(NC(C)=O)cc4s3)sc2c1`, the Activity in data set [1] is given as 1531 nm; in data set [2], 122 kCounts; in [3], 270 kCounts; in [4] it was 1438 nm; in data set [6], 275 nm; in data set [7], 271 nm. The Activity turned out to be 285 kCounts in data set [8], 0.7 um in data set [16], 0.03 um in data set [17] and 115 kCounts in data set [9]. Also, the half-inhibitory concentration (IC50) in [11] was 60.6 µM. The 90% effect concentration (IC90) in [5] was < 0.2 µg/mL. For the same molecule, the inhibition is 97.4% in data set [12]; 0% in data set [13]; 0% in data set [14]; 0% in [15]; > 90% in [10].

Take `CCc1cccc2sc(N(CCCn3ccnc3)C(=O)/C=C/c3cccs3)nc12`: the Activity in [1] was 3776 nm; in data set [2], 286 kCounts; in [3], 380 kCounts; in data set [4], 3823 nm; in data set [6], 908 nm; in data set [7], 817 nm. For the same molecule, the Activity in data set [8] was 400 kCounts; in data set [9] it was 270 kCounts. For the same molecule, the concentration for an effect of 90% (IC90) in [5] was found to be 0.83 µg/mL (≈ 1.96 µM). The inhibition in data set [10] is > 90%.

On to `CCCCC(=O)Nc1nnc(-c2ccc3c(c2)CCCC3)o1`, for which the Activity in [1] is 1432 nm; in data set [2], 131 kCounts; in [3] it was 260 kCounts; in data set [4], 1324 nm; in data set [6] it was 259 nm; in data set [7], 255 nm. The Activity worked out at 280 kCounts in data set [8] and 100 kCounts in data set [9]. Besides, in data set [5], the IC90 came to 3.04 µg/mL (≈ 10.2 µM). Further, the inhibition in [10] was > 90%.

Turning to `O=C(Nc1nnc(-c2ccccc2Cl)o1)c1cccc(Oc2ccccc2)c1`, the Activity in data set [1] is given as 2850 nm; in data set [2], 180 kCounts; in data set [3], 330 kCounts; in data set [4], 2423 nm; in data set [6], 481 nm; in data set [7] it was 516 nm. The results for the Activity in [8] and in [9] were 350 kCounts and 170 kCounts, respectively. Moreover, in data set [11], the IC50 was found to be 38.7 µM. The same molecule came in with an IC90 in data set [5] of 0.86 µg/mL (≈ 2.19 µM). Also, the inhibition was 90% in data set [12]; 0% in data set [13]; 0% in data set [14]; 0% in [15]; > 90% in data set [10].

On to `CCSc1ccc(C(=O)Nc2nnc(-c3ccc4c(c3)CCCC4)o2)cc1`, for which the Activity in [1] came out at 2005 nm; in data set [2] it was 158 kCounts; in data set [3] it was 330 kCounts; in [4], 1921 nm; in [6], 410 nm; in data set [7], 480 nm. Further, the Activity in data set [8] is 340 kCounts; in data set [9], 152 kCounts. Also, the concentration for an effect of 90% (IC90) in data set [5] is 1.93 µg/mL (≈ 5.09 µM). Also, in data set [10], the inhibition is > 90%.

As to `Cc1ccc(-c2nnc(NC(=O)c3ccccc3Cl)o2)c(C)c1`, the Activity in [1] amounted to 1321 nm; in data set [2] it was 115 kCounts; in [3] it was 255 kCounts; in data set [4] it was 1301 nm; in data set [6] it was 203 nm; in data set [7] it was 212 nm. In addition, the Activity came out at 270 kCounts in data set [8] and 95 kCounts in data set [9]. Also, the IC90 in [5] is < 0.2 µg/mL. The inhibition in [10] was > 90%.

`Cc1cc(C)c2sc(N3CCCC3)nc2c1`: the Activity in [1] is 1750 nm; in [2], 139 kCounts; in [3], 290 kCounts; in [4] it was 1762 nm; in [6], 343 nm; in data set [7] it was 373 nm. The Activity worked out at 300 kCounts in data set [8] and 130 kCounts in data set [9]. Also, the IC90 in [5] worked out at 1.75 µg/mL (≈ 7.53 µM). In data set [10], the inhibition was > 90%.

Consider `Cc1ccc(-c2nnc(NC(=O)c3ccc([N+](=O)[O-])o3)o2)c(C)c1`, for which the Activity in data set [1] was found to be 851 nm; in data set [2], 83 kCounts; in [3], 182 kCounts; in data set [4] it was 823 nm; in data set [6], 131 nm; in [7], 131 nm. Moreover, the Activity in data set [8] was determined as 190 kCounts; in data set [9] it was 72 kCounts. The IC50 in [11] is 65.7 µM. In data set [5], this molecule gave an IC90 of 0.69 µg/mL (≈ 2.1 µM). For the same molecule, the inhibition in data set [12] was 91.6%; in data set [13], 0%; in data set [14], 0%; in data set [15] it was 0%; in data set [10], > 90%.

The values are drawn from ChEMBL document CHEMBL4184222, “A multifaceted approach to identify non-specific enzyme inhibition: Application to Mycobacterium tuberculosis shikimate kinase” (Bioorg Med Chem Lett, 2018).
